Data: US12285393B2, “Roles of modulators of intersectin-Cdc42 signaling in Alzheimer's disease” (priority 2017, dated 2025)

What was measured:
Rac1 = target: T1, Rac1 (Homo sapiens, UniProt P63000); experiment: Rho-GEF IC50 assay (GEF/DH domain-mediated mant-GTP binding); type: biochemical
T1 construct: purchased Cytoskeleton Inc
Experimental: (§1) Rho-GEF IC50 Assay: Rho-GEF assay (Cytoskeleton Inc., Denver, Colorado, United States of America) was conducted per manufacturer's instructions (λex=360 nm, λem=460 nm). Briefly, a solution (50 μL) of purified Rho GTPase (1 μM) and mant-GTP (1.5 μM) with or without compound (0.001-500 μM) was prepared and the absorbance monitored for 10-30 min to obtain the background/baseline. The addition of purified GEF/DH domain (0.08-0.2 μM) was carried out simultaneously and the absorbance was recorded for 30-45 min. The linear slope following the addition of the GEF was calculated and expressed as percentage of the control and plotted on an IC50 curve.

RhoA = target: T2, RhoA (Homo sapiens, UniProt P61586); experiment: as above; type: biochemical
T2 construct: purchased Cytoskeleton Inc
Experimental: as §1

Swiss 3T3 cells = experiment: Immunofluorescence, cell morphology and bradykinin-mediated activation; type: cell-based
Experimental: Immunofluorescence: Serum-starved Swiss 3T3 cells were pretreated with compound for 2 h before the addition of bradykinin (100 ng/mL) for 20 min. Cells were fixed in 4% paraformaldehyde for 15 min at RT and stored in PBS. Fixed cells were treated with 0.5% Triton for 30 min at RT, 100 mM Glycine 30 min at RT, and 10% BSA for 30 min at 37° C. Primary antibody for GM130 (1:1000, BD Biosciences, Franklin Lakes, New Jersey, United States of America) was used to probe for 1 h at RT followed by CY3-conjugated secondary antibody (1:1000) for 1 h at RT in the dark. Actin was stained with fluorescein-conjugated phalloidin (1:300). Hoechst (1:2500) was used to stain the nuclei. Coverslips were mounted onto slides using antifade medium from Life Technologies (Carlsbad, California, United States of America). Images were taken with a Zeiss Axiovert S100 microscope (Carl Zeiss; Thornwood, New York, United States of America).

[1] = Solubility profile by optical density; type: physicochemical; conditions: for Ratio (optical density solution/solvent alone) / optical density of solution: RT, 10 minutes
From the text: ZCL278, ZCL279, and ZCL367 were all tested for solubility in the 5 FDA approved solvents to be used in humans. […] Results are shown below in Tables 2-4. Ratio refers to the optical density of the solution comprising the modulator compound/the optical density of the carder/solvent alone.

C57BL/6 mice = experiment: Toxicity experiment, I.P. injection; type: in vivo; conditions: 0.4 mg/g or 0.8 mg/g body weight I.P.; 1 hour or 2 weeks
Experimental: (§2) ZCL 278 Toxicity Experiment: Individual C57BL/6 mice of 4-6 months of age from Jackson Laboratory (Bar Harbor, Maine, United States of America) were submitted to ZCL278 treatment for 5 minutes, 30 minutes, 2 hours and 24 hours. The dosage of ZCL278 for each mouse was 0.8 mg/g body weight delivered via intraperitoneal (I.P.) injection of a 15 mg/ml solution of ZCL278 was dissolved in the sesame oil (10% DMSO).
as §2, with “279” for “278”, “ZCL279” for “ZCL278”, “0.6” for “0.8”
ZCL367 Toxicity Experiment: Individual C57BL/6 mice of 4-6 months of age from Jackson Laboratory (Bar Harbor, Maine, United States of America) were submitted to ZCL367 treatment for 1 hour or 2 weeks. The dosage of ZCL367 for each time period was 0.4 mg/g body weight or 0.8 mg/g body weight, delivered via I.P. injection. […] Mice were sacrificed after end of 1 hour or 2 weeks.

mice = experiment: Long-term survival after one injection; type: in vivo
Experimental: Long-term Survival. Groups of 10 mice were treated with one injection of ZCL278 (up to 0.8 mg/g), ZCL279 (up to 0.6 mg/g), or ZCL367 (up to 1.6 mg/g) to examine potential lethal dosage (the maximal dosage tested when no mice died). […] Durations longer than 3 months have not been tested. As a reference, working dosage for the behavioral assessment described below used 20 ug/g for injection, […] than the highest dosage of 0.8 mg/g tested in the long-term survival experiment.

Cdc42 [2] = target: T3, Cdc42 (Homo sapiens, UniProt P60953); experiment: Rho-GEF IC50 assay (GEF/DH domain-mediated mant-GTP binding); type: biochemical; design: purchased Cytoskeleton Inc; conditions: read-out: IC50, GEF/DH domain-mediated mant-GTP binding/Cdc42 activation
Experimental: as §1

Cdc42 [3] = target: T3, Cdc42; experiment: mant-GTP binding to Cdc42 with or without GEF/DH domain; type: biochemical; design: purchased Cytoskeleton Inc; conditions: 5-500 μM
Experimental: (§3) Cdc42 (1 μM) was incubated with mant-GTP (1.5 μM) and varying concentrations of ZCL278, ZCL279, or ZCL367 (5-500 μM). Fluorescent readings were taken every minute for 10 m to acquire the baseline. The GEF/DH domain (0.08-0.2 μM) was added followed by readings taken every minute for another 30 m. The linear phase was calculated from within the time period of 12-22 m. Cdc42 (1 μM) was incubated with mant-GTP (1.5 μM) and varying concentrations of ZCL278, ZCL279, or ZCL367 (5-500 μM). Fluorescent readings were taken every minute for 30 m to monitor the binding of mant-GTP in the absence of GEF/DH domain.

Cdc42 [4] = target: T3, Cdc42; experiment: Cdc42-GEF-assay, additional compound screening; type: biochemical; design: purchased Cytoskeleton Inc; conditions: for % ZCL278 (with GEF): assay slope relative to ZCL278, normalized to batch; for % ZCL278 (without GEF): baseline slope relative to ZCL278, normalized to batch
Experimental: as §1, §3
Cdc42-GEF-assays were conducted on additional screening compounds in batches of 9 compounds per batch as described above in Example 2 using ZCL278 and ZCL367 as standards. Screening compounds were taken from the Specs Chemistry Database of 197,000 compounds for small molecule or the National Cancer Institute Compound Library. […] These compounds promote Cdc42-mantGTP binding without GEF. It is possible that these compounds can inhibit Cdc42-mantGTP binding with GEF. […] These compounds appear to have activity like ZCL279. […] However, upon the addition of GEF, the compounds appear to facilitate the binding of mantGTP to Cdc42 (high assay slope, relative to ZCL278)

[5] = Polyethylene Glycol300 (PEG-300), 30%

T3 sequence (P60953 whole entry, the tested form may be a part): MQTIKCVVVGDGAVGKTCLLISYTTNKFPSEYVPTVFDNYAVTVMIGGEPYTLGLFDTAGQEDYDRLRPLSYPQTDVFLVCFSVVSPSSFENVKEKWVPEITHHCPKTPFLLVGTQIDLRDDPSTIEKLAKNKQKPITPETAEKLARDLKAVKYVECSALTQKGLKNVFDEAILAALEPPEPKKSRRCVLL
T2 sequence (P61586 whole entry): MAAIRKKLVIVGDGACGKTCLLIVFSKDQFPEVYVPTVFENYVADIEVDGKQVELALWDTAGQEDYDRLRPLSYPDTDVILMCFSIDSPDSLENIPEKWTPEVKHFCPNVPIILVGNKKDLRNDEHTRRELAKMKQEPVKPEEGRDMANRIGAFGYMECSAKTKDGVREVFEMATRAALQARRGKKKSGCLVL

O=C(N/N=C/c1ccccc1O)c1cc(O)cc(O)c1 [ZCL367, (E)-3,5-dihydroxy-N′-(2-hydroxybenzylidene)benzohydrazide]
IC50 (Rac1): 190 nM | IC50 (RhoA): 29700 nM | bradykinin-mediated activation (Swiss 3T3 cells; Swiss 3T3 cells, bradykinin 100 ng/mL): inhibit bradykinin-mediated activation | changes to cell morphology (Swiss 3T3 cells; after 4 h of treatment, more drastic after six hours): no effects on cell morphology | Ratio (optical density solution/solvent alone) ([1]; 1,2-Propanediol, 40%): 2.667 | optical density of solution ([1]; 1,2-Propanediol, 40%): 0.104 | Ratio (optical density solution/solvent alone) ([1]; Dimethyl Sulfoxide (DMSO)): 1.048 | optical density of solution ([1]; Dimethyl Sulfoxide (DMSO)): 0.044 | Ratio (optical density solution/solvent alone) ([1]; Pluronic F-68, 10%): 2.026 | optical density of solution ([1]; Pluronic F-68, 10%): 0.079 | Ratio (optical density solution/solvent alone) [1, 5]: 2.333 | optical density of solution [1, 5]: 0.091 | Ratio (optical density solution/solvent alone) ([1]; Sesame Oil): 2.636 | optical density of solution ([1]; Sesame Oil): 0.116 | Ratio (optical density solution/solvent alone) ([1]; Sterile Water): 5.211 | optical density of solution ([1]; Sterile Water): 0.198 | Ratio (optical density solution/solvent alone) ([1]; Tween-80, 0.4%): 3.579 | optical density of solution ([1]; Tween-80, 0.4%): 0.136 | Ratio (optical density solution/solvent alone) ([1]; dPBS): 2.974 | optical density of solution ([1]; dPBS): 0.113 | solubility ([1]; in DM19): completely soluble | gross anatomic toxicity (liver, kidney, spleen) (C57BL/6 mice): no gross anatomic toxicity | Lethal Dosage (mice; mouse, in vivo): 0.8 mg/g | Longest Dosing Duration (mice; mouse, in vivo): 2 months | deaths in long-term survival (mice; one injection, 1.6 mg/g, in 1 month): one (day 20) out of four mice died | IC50 (Cdc42 [2]): 98 nM | effect on Cdc42 (mant-GTP binding) (Cdc42 [3]; in the absence of GEF domain): has no effect | effect on Cdc42 (mant-GTP binding) (Cdc42 [3]; in the presence of GEF domain): acts as an inhibitor | % ZCL367 (inhibitor activity) (Cdc42 [4]; percentages of ZCL367 normalized to batch, less than 100% = more potent inhibitor): 100%

O=C(CCN1C(=O)C2C(C1=O)[C@H]1C=C[C@@H]2C1)Nc1cccc2ccccc12 (stereo partly drawn) [ZCL1119]
% ZCL278 (with GEF) (Cdc42 [4]): 103.291% | % ZCL278 (without GEF) (Cdc42 [4]): 59.173%

NS(=O)(=O)c1ccc(NC2OCC(O)C(O)C2O)cc1 (stereo not drawn) [NSC158437]
% ZCL278 (with GEF) (Cdc42 [4]): 127.593% | % ZCL278 (without GEF) (Cdc42 [4]): 12.229%
